According to patent US7189859B2, “Radiolabelled phenylethyl imidazole carboxylic acid ester derivatives” (priority 2003, dated 2007):
Like-named read-outs stand apart in the source and are kept apart here.

How the values were obtained:
[1] = biological target: T1, cytochrome P-45011β enzyme system (Rattus norvegicus, UniProt P15393); assay: Displacement of [^131I]MTO binding
T1 construct: Whole adrenals from adult male Wistar rats were homogenized; from tissue; host or cells: whole adrenals of adult male Wistar rats, washed membrane pellet
T1 sequence (P15393 25-499): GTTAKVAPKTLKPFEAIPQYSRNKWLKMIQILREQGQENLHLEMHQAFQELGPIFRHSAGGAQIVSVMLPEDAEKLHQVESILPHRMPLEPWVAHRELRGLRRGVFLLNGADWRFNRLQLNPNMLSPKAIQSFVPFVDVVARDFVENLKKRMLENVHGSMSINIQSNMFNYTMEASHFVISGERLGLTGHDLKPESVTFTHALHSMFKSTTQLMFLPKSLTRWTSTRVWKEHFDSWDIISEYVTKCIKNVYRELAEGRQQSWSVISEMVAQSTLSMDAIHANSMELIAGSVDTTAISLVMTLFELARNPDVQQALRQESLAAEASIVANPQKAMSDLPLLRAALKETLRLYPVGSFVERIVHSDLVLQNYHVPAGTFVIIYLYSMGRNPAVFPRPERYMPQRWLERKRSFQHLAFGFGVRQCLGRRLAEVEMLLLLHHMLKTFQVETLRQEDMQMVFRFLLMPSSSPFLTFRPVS
Protocol: Test compounds were incubated at 0.01–100 nM concentrations. Non-specific binding was determined with etomidate (10 μM). […] The filters containing membranes with bound radioligand were measured in a gamma-spectrometer.
IC50 values (the molar concentration of compound necessary to inhibit binding by 50%) were determined for each test compound by non-linear, least squares regression analysis, using an iterative curve fitting routine.

[2] = test system: lesions of adrenocortical origin; conditions: clinical; cited from earlier work
[3] = biological target: T2, rat adrenal membranes (cytochrome P-450 β-hydroxylase) (Rattus norvegicus, UniProt P15393); assay: [^131I]MTO binding to rat adrenal membranes (association, dissociation, saturation); conditions: for observable association rate constant v: data pooled from 7 experiments
T2 sequence (P15393 25-499): T1 sequence (P15393 25-499)
Protocol: Whole adrenals from adult male Wistar rats were homogenized in 10 mM K2HPO4/10 mM HEPES (pH 7.1) with a glass/teflon piston (Potter-type). The homogenate was centrifuged at 35.000×g for 10 min, the pellet was resuspended in fresh buffer and centrifuged again. Membranes were washed 2 more times and stored as aliquots at −80° C.
After incubation, membranes with bound radioligand were isolated by filtration through Whatman GF/B glass fiber filters (presoaked in buffer), followed by 2×4 mL washings with buffer, then filters were measured in a gamma-spectrometer.
For dissociation experiments, membranes were fully equilibrated with 2 nM radioligand, and the dissociation was initiated by the addition of excess unlabelled 4-iodo-MTO and stepwise filtration at 15 sec intervals.
For saturation studies 2–100 nM 4-iodo-MTO carrier was used. See summary in FIG. 1. […] Incubation for 30 minutes using 10 mM K2HPO4/10 mM HEPES, 150 mM NaCl (pH 7.1).

adrenals = assay: In vivo evaluation of ^131I-MTO (organ distribution after tail vein injection); conditions: rats
Protocol: Method: ^131I-MTO was used with a radiochemical purity >99% and a specific activity of 57 GBq/μmol. The radiotracer (0.5–1.1 MBq; […]) was injected into the tail vein of rats (female, 180–220 gram). Groups of four rats were sacrifized at specified times up to 24 hours post injection. The organs were excised and weighed, the radioactivity was measured at constant geometry using a gamma-spectrometer with a Nal(TI)-crystal. The data were expressed as percent of injected dose (ID) per organ and as percent of ID per gram tissue.

[4] = test system: steroid 11β-hydroxylation; conditions: human adrenocortical tissue slices; cited from earlier work
[5] = read-out: IC50 (inhibition of [^131I]MTO binding), rat adrenal membranes

## CC(c1ccccc1)n1cncc1C(=O)O (stereo not drawn) [ETO-acid]
[1]; [5]
  IC50: 123000 nM

## COC(=O)c1cncn1[C@H](C)c1ccc(I)cc1 [Example 4-iodo-MTO, (R)-methyl 3-[1-(4-iodophenyl)ethyl]-3H-imidazole-4-carboxylate]
[1]
  IC50: 9 nM

## C[C@H](c1ccccc1)n1cncc1C(=O)OCCF [FETO]
[1]; [5]
  IC50: 3 nM

## CC(C)(C(=O)c1cccnc1)c1cccnc1 [Metyrapone]
[1]
  IC50: 1200 nM

## COC(=O)c1cncn1C(C)c1ccccc1 (stereo not drawn) [[O-methyl-^11C]metomidate]
[2]
  uptake in lesions of adrenocortical origin, including adenomas: high uptake
  uptake in lesions of non-adrenocortical origin: very low uptake

## COC(=O)c1cncn1[C@H](C)c1ccc(I)cc1 [[^131I]MTO, (R)-3-[1-(4-[^131I]iodophenyl)ethyl]-3H-imidazole-4-carboxylic acid methyl ester]
[3]; saturation analysis, 2–100 nM 4-iodo-MTO carrier, 30 minutes incubation, pH 7.1, (15)
  Kd: 7.4 ± 2.8 nM

## COC(=O)c1cncn1[C@H](C)c1ccc([131I])cc1 [[^131I]MTO, (R)-3-[1-(4-[^131I]iodophenyl)ethyl]-3H-imidazole-4-carboxylic acid methyl ester]
adrenals; intravenous (tail vein)
  duration of radioactivity plateau in the adrenals: 2 h
  route of elimination: eliminated both by hepatobiliary and by renal excretion
  specific uptake in the adrenals: approximately 10 % ID/g tissue
adrenals; renal activity attributed to ^131I-ETO-acid
  time post injection up to which renal activity is increasing: up to 4 hours
[3]; ligand concentration 2 nM 4-iodo-MTO
  observable association rate constant v: 0.65 min⁻¹
[3]; ligand concentration 4 nM 4-iodo-MTO
  observable association rate constant v: 1.23 min⁻¹
[3]; ligand concentration 11 nM 4-iodo-MTO
  observable association rate constant v: 1.34 min⁻¹

## CCOC(=O)c1cncn1[C@H](C)c1ccccc1 [etomidate]
[1]
  IC50: 1.1 nM
[4]
  inhibition of steroid 11β-hydroxylation: block the conversion of 11-deoxycortisol to cortisol and of 11-deoxycorticosterone (DOC) to corticosterone and aldosterone

## COC(=O)c1cncn1C(C)c1ccccc1 (stereo not drawn) [metomidate]
[1]
  IC50: 3.7 nM
[4]
  inhibition of steroid 11β-hydroxylation: equally potent inhibitor
